From PubChem BioAssay (NCI)
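Where inhibition never reached the appropriate level, the endpoint shown equals the highest concentration tested. Otherwise, values were interpolated linearly from a five-concentration, 48-hour dose response in 96-well plates. Abbreviation: GI50, concentration required for 50% inhibition of growth. TGI is the concentration that stops growth completely.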

Columns and labels:
Experiment in all cases: DTP human tumour cell line panel, 48 h
SN12C renal = system: SN12C renal
HCT-116 colon = system: HCT-116 colon
NCI-H226 lung = system: NCI-H226 lung
OVCAR-3 ovarian = system: OVCAR-3 ovarian
A498 renal = system: A498 renal
SF-295 CNS = system: SF-295 CNS
OVCAR-5 ovarian = system: OVCAR-5 ovarian
SK-MEL-5 melanoma = system: SK-MEL-5 melanoma
HCC-2998 colon = system: HCC-2998 colon
PC-3 prostate = system: PC-3 prostate

SMILES | TGI (SN12C renal) [µM] | TGI (HCT-116 colon) [µM] | TGI (NCI-H226 lung) [µM] | TGI (OVCAR-3 ovarian) [µM] | TGI (A498 renal) [µM] | TGI (SF-295 CNS) [µM] | TGI (OVCAR-5 ovarian) [µM] | TGI (SK-MEL-5 melanoma) [µM] | TGI (HCC-2998 colon) [µM] | GI50 (SN12C renal) [µM] | GI50 (HCT-116 colon) [µM] | GI50 (NCI-H226 lung) [µM] | GI50 (OVCAR-3 ovarian) [µM] | GI50 (HCC-2998 colon) [µM] | GI50 (SF-295 CNS) [µM] | GI50 (OVCAR-5 ovarian) [µM] | GI50 (PC-3 prostate) [µM] | TGI (PC-3 prostate) [µM] | GI50 (SK-MEL-5 melanoma) [µM] | GI50 (A498 renal) [µM]
NC(=O)c1c[se]c(C2OC(COP(=O)(O)CP(=O)(O)OCC3OC(n4cnc5c(N)ncnc54)C(O)C3O)C(O)C2O)n1 (centres undefined) | > 100 | > 100 | > 100 | > 100 | > 100 | > 100 | > 100 | > 100 | – | – | – | – | – | – | – | – | – | – | – | –
CC[P+]1(CC)CCCC1 | > 100 | – | – | > 100 | – | > 100 | > 100 | > 100 | > 100 | – | – | – | – | – | – | – | – | – | – | –
COC(=O)C1(F)C(=O)NC(=O)NC1OC (centres undefined) | > 100 | 94.7 | > 100 | > 100 | > 100 | > 100 | > 100 | > 100 | – | – | – | – | – | – | – | – | – | – | – | –
COc1nc2c(c(O)c(C)c(=O)n2OC2OC(COC(C)=O)C(OC(C)=O)C(OC(C)=O)C2OC(C)=O)c(=O)n1C (centres undefined) | > 100 | > 100 | > 100 | – | – | > 100 | > 100 | > 100 | > 100 | – | – | – | – | – | – | – | – | – | – | –
CC1(C)CC(=O)c2c(oc3cc(O)c(O)cc23)C1 | > 100 | – | – | – | > 100 | > 100 | 56.9 | 32.5 | > 100 | – | – | – | – | – | – | – | – | – | – | –
COc1ccc2c(c1)nc1n2C(c2ccc(F)cc2)SC1 (centres undefined) | > 100 | > 100 | 54.1 | 65.4 | – | > 100 | > 100 | 28.7 | 57.1 | 32.2 | 30.8 | 19.1 | 22.6 | 18.4 | 27.9 | 33.6 | 27.1 | > 100 | 15.4 | –
NC(N)=N/N=C/c1c(-c2ccc(Cl)c([N+](=O)[O-])c2)nc2n1CCS2 | 9.04 | 2.97 | 24 | 3.91 | 39.5 | 20.8 | 27.8 | 36.7 | – | 2.29 | 1.62 | 4.24 | 1.93 | – | 7 | 14.6 | 2.93 | 15.1 | 15 | 18.3
c1ccc(OCCSCCCCCCCCCCSCCOc2ccccc2)cc1 | > 100 | – | > 100 | > 100 | > 100 | > 100 | > 100 | > 100 | > 100 | – | – | – | – | – | – | – | – | – | – | –
O=C(O)C1C2C=CC(O2)C1C(=O)Nc1ncccn1 (centres undefined) | > 100 | > 100 | > 100 | > 100 | > 100 | > 100 | > 100 | > 100 | – | – | – | – | – | – | – | – | – | > 100 | – | –
CCCCCCCCCC(=O)Oc1cccc2onc(C)c12 | > 100 | > 100 | > 100 | > 100 | – | > 100 | > 100 | > 100 | > 100 | – | – | – | – | – | – | – | – | – | – | –
CC1=C(C(=O)CC(=O)C(=O)NC2C3CC4CC(C3)CC2C4)Sc2ccccc2N1 (centres undefined) | > 100 | > 100 | – | > 100 | > 100 | > 100 | > 100 | > 100 | > 100 | – | – | – | – | – | – | – | – | – | – | –
Cc1ccccc1NC(=O)C(=O)CC(=O)c1ccc([N+](=O)[O-])cc1 | > 100 | > 100 | > 100 | > 100 | – | > 100 | > 100 | – | > 100 | – | – | – | – | – | – | – | – | – | – | –
COc1ccc(/C=C(/C(=O)n2cnnn2)c2cc(OC)c(OC)c(OC)c2)cc1 | > 100 | > 100 | > 100 | 5.94 | > 100 | > 100 | > 100 | 29.4 | – | 5.15 | 3.08 | > 100 | 2.37 | – | 3.24 | 5.78 | 4.03 | > 100 | 3.12 | 4.26
CCOC(=O)C[C@@]12CCCNC1(C)CCc1ccccc12 (some centres undefined) | > 100 | > 100 | > 100 | > 100 | – | > 100 | – | > 100 | – | – | – | – | – | – | – | – | – | – | – | –
C/C(=N/O)c1ccc2c(c1)C(=NO)c1cc(/C(C)=N/O)ccc1-2 | 33.6 | 64.6 | 26.8 | 39.3 | – | 29.1 | 31.6 | 28.5 | 33.9 | – | – | – | – | – | – | – | – | – | – | –
O=C1C(c2ccccc2)=C(c2ccccc2)[C@H](c2ccccc2)[C@]1(Cc1nnn(-c2ccc([N+](=O)[O-])cc2)c1N1CCOCC1)c1ccccc1 | > 37.5 | > 37.5 | – | > 37.5 | > 37.5 | > 37.5 | – | > 37.5 | > 37.5 | – | – | – | – | – | – | – | – | – | – | –
Cc1cc([N+](=O)[O-])c(S(=O)(=O)c2ccccc2)c([N+](=O)[O-])c1 | 18.3 | 22.5 | 41.9 | 11.4 | 35.6 | 36.9 | 33.6 | 27.8 | 35.7 | – | – | – | – | – | – | – | – | – | – | –
CC(=O)[CH-]C(=O)c1ccccc1.CC(=O)[CH-]C(=O)c1ccccc1.[CH2-]CCC.[CH2-]CCC.[Sn+4] | 2.68 | 2.78 | 2.28 | 2.62 | 3.74 | 2.87 | 3.59 | 1.97 | – | 1.14 | 1.38 | 0.526 | 1.3 | – | 1.51 | 2.07 | – | – | 0.625 | 1.66
COc1cc(O)c(C(C)=O)c(O)c1 | > 100 | > 100 | – | > 100 | > 100 | > 100 | > 100 | > 100 | > 100 | – | – | – | – | – | – | – | – | > 100 | – | –
COc1ccc(CC2=NCCc3cc(OC)c(OC)cc32)cc1Br | > 100 | – | 50.9 | – | 95.1 | 30.4 | 8.32 | 25.3 | 35.6 | – | – | – | – | – | – | – | – | – | – | –
COC(=O)c1cc2c3c(ccc2[nH]1)N(C(=O)c1cc2c4c(ccc2[nH]1)N(C(=O)c1cc2c5c(ccc2[nH]1)N(C(N)=O)CC5)CC4)CC3 | 49.4 | > 100 | 5.76 | > 28.9 | 4.4 | 44 | > 100 | 8.68 | > 100 | – | – | – | – | – | – | – | – | – | – | –
C/C(=N/NC(=O)CC(=O)N(C(=O)c1ccccc1Cl)c1ccc(C)cc1)c1cc2ccccc2oc1=O | > 100 | > 100 | > 100 | > 100 | > 100 | > 100 | > 100 | > 100 | > 100 | – | – | – | – | – | – | – | – | – | – | –
